Measured values as given in paper PMC12113431, “Chartarlactams U-X: Novel Phenylspirodrimanes from a Marine Derived Fungus Stachybotrys sp. SZU-W23 with Anti-Inflammatory Activity Mediated by the NF-κB/ROS Signaling Pathways” (Marine Drugs, 2025).
Read-outs that look alike come from different tables or passages of the source.

Key:
[1] = test system: nitric oxide production in LPS-stimulated RAW 264.7 macrophages; assay: Inhibition of NO production in LPS-stimulated RAW 264.7 macrophages (Griess reaction); type: cell-based, mouse; details: for IC50: Mus musculus, read-out: IC50, inhibition of NO production; for NO production inhibition at 10 μM: test concentration of 10 μM; for NO production inhibition at 10 μM / NO-inhibitory effect: RAW 264.7, LPS; for NO-inhibitory effect: tested at 3 to 30 μM
Protocol: RAW 264.7 macrophages were seeded into 96-well plates at a density of 2.0 × 10^5 cells/well in complete DMEM and allowed to adhere for 2 h at 37 °C under 5% CO2. The cells were pretreated with compounds 1–15 (3–30 μM) for 2 h, followed by stimulation with ultrapure lipopolysaccharide (LPS; 100 ng/mL, from E. coli O111:B4, Sigma-Aldrich) for 24 h. NO production was assessed via the Griess reaction by quantifying nitrite (NO2^−) accumulation in culture supernatants.
Briefly, 50 μL of the cell-free supernatant from each well was mixed with 50 μL of 1% sulfanilamide (dissolved in 5% phosphoric acid; Griess Reagent A, Beyotime Biotechnology, Shanghai, China) and incubated for 5 min at room temperature. Subsequently, 50 μL of 0.1% N-1-naphthylethylenediamine dihydrochloride (Griess Reagent B, Beyotime Biotechnology) was added, followed by 5 min incubation in the dark. The absorbance was measured at 540 nm with a reference wavelength of 630 nm using a Synergy H1 microplate reader (BioTek Instruments, Winooski, VT, USA). Nitrite concentrations were interpolated from a sodium nitrite standard curve (0–100 μM; R^2 > 0.99).

[2] = test system: IL-1β expression in RAW 264.7 cells; assay: LPS-induced IL-1β expression by real time PCR; type: cell-based, mouse; details: RAW 264.7, 0.3–10 μM, LPS 24 h
Protocol: (§1) RAW 264.7 cells (2 × 10^6 cells) were seeded into 30 mm petri dishes. After the cells adhered to the dishes for 2 h, compound 10 at concentrations of 0.3, 1, 3, and 10 μM was added, and the cells were cultured in an incubator at 37 °C for 2 h. Then, 100 ng/mL of LPS was added and the cells were co-cultured for 24 h. The cells were collected into 1.5 mL EP tubes, and total RNA was extracted using an RNA extraction kit. Then, the concentration of the total RNA was determined with a nucleic acid quantifier, and the RNA was reverse transcribed into the corresponding cDNA.
(§2) According to the operation procedures of the rapid reverse transcription kit, 1 μg of total RNA and 1 μL of dNTP Mixture were first added into a PCR tube. Then, RNase-free dH2O was added until the total volume of the solution reached 10 μL. After mixing evenly, the mixture was incubated at 65 °C for 5 min and then immediately placed on ice for ice-bathing. Subsequently, 4 μL of 5 × PrimeScript® Buffer, 0.5 μL of RNase Inhibitor (40 U/μL), 1 μL of PrimeScript® RTase (200 U/μL), and 4.5 μL of RNase Free dH2O were added to make the entire solution system reach 20 μL. […]
(§3) The reaction system mixture was prepared using a real-time quantitative PCR kit. […]

[3] = test system: nitric oxide production in LPS-stimulated RAW 264.7 macrophages; assay: Inhibition of NO production in LPS-stimulated RAW 264.7 macrophages (Griess reaction); type: cell-based, mouse; details: re-evaluation within 0.3–10 μM, RAW264.7, LPS
[4] = test system: iNOS mRNA expression in RAW 264.7 cells; assay: LPS-induced iNOS mRNA expression by RT-qPCR; type: cell-based, mouse; details: RAW 264.7, 0.3–10 μM, LPS 24 h
Protocol: as §1, §2, §3

[5] = test system: ROS production in RAW264.7 cells; assay: LPS-induced ROS production (DCFH-DA fluorescent probe); type: cell-based, mouse; details: RAW264.7, LPS 24 h, concentrations that are not cytotoxic (0.3–10 μM)
Protocol: RAW264.7 cells were seeded into black 96-well plates at a density of 5 × 10^4 cells per well and cultured for 2 h until they adhered to the plate. Subsequently, compound 10 at concentrations of 0.3, 1, 3, and 10 μM was added respectively, and the cells were cultured for another 2 h. Then, 100 ng/mL of LPS was added and the cells were co-cultured in an incubator at 37 °C for 24 h. After that, the production of ROS was detected. The cell culture medium in the 96-well plates was removed, and then […] of the fluorescent probe DCFH-DA solution diluted to 10 μM with serum-free DMEM medium was added. The plates were placed in the cell incubator and incubated in the dark for 30 min. Subsequently, the supernatant was removed and the cells were washed three times with phosphate-buffered saline (PBS). Finally, detection was carried out using a microplate reader (BioTek, Winooski, VT, USA) with an excitation wavelength of 488 nm and an emission wavelength of 525 nm.

[6] = test system: TNF-α expression in RAW 264.7 cells; assay: LPS-induced TNF-α expression by real time PCR; type: cell-based, mouse; details: RAW 264.7, 0.3–10 μM, LPS 24 h
Protocol: as §1, §2, §3

RAW 264.7 cells = assay: Cytotoxicity, CCK-8 cell viability assay; type: cell-based, mouse; details: for cytotoxicity (qualitative): tested at 3, 10 and 30 μM
Protocol: RAW 264.7 cells were seeded into 96-well plates at a density of 1.0 × 10^5 cells/well (100 μL/well) in complete DMEM (high-glucose DMEM supplemented with 10% FBS, 100 U/mL penicillin, and 100 μg/mL streptomycin) and allowed to adhere for 24 h at 37 °C under 5% CO2. Subsequently, serial dilutions of compounds (0.3–30 μM in DMSO, with the final DMSO concentration < 0.1%) were added to respective wells and incubated for 24 h. Cell viability was assessed using the CCK-8 assay (Dojindo Laboratories, Kumamoto, Japan): 10% (v/v) CCK-8 reagent was added to each well, followed by incubation for 30 min at 37 °C. The absorbance was measured at 450 nm with a reference wavelength of 650 nm using a microplate reader (BioTek Instruments, Winooski, VT, USA).

[7] = test system: IL-6 expression in RAW 264.7 cells; assay: LPS-induced IL-6 expression by real time PCR; type: cell-based, mouse; details: RAW 264.7, 0.3–10 μM, LPS 24 h
Protocol: as §1, §2, §3

NF-κB p65 = target: T1, NF-κB p65 (Mus musculus, UniProt Q04207); assay: DNA-binding activity of p65 (NF-κB p65 ELISA kit); type: cell-based; details: 0.3–10 μM, p < 0.01 vs. LPS-only group
T1 construct: endogenous in cells; host or cells: RAW 264.7 murine macrophages, LPS-stimulated
T1 sequence (Q04207 whole entry): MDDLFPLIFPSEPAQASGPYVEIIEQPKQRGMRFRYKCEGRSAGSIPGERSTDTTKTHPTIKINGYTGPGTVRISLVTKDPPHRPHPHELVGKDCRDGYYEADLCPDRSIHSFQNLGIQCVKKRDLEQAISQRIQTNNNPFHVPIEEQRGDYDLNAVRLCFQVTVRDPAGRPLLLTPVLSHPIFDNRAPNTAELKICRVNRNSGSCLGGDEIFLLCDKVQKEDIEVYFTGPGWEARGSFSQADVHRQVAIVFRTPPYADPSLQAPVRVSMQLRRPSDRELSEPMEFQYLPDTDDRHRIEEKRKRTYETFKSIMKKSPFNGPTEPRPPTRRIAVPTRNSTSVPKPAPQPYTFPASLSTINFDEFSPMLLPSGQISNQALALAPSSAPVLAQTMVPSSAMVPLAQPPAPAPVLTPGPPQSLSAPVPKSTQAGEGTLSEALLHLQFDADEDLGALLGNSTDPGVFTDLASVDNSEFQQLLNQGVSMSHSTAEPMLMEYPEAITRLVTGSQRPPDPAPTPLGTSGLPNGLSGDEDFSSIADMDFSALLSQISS
Protocol: To investigate the anti-inflammatory mechanism of compound 10, we quantified its inhibitory effect on the DNA-binding activity of p65 using a TransAM® NF-κB p65 ELISA kit (Ruixin Biotechnology, Guangzhou, China).
RAW 264.7 macrophages were seeded into 60 mm diameter culture dishes at a density of 3.0 × 10^6 cells/dish in complete DMEM and allowed to adhere for 2 h at 37 °C under 5% CO2. Cells were pretreated with Compound 10 (0.3–10 μM in DMSO, final solvent concentration < 0.1%) for 2 h, followed by stimulation with ultrapure LPS for an additional 2 h. The supernatant of cell culture medium was collected, and then NF-κB p65 binding activity of NF-κB in extracts was detected with NF-κB p65 kit (RUIXIN, Quanzhou, China).

[8] = test system: NO production in LPS-activated RAW264.7 murine macrophages; parameters: method as in doi:10.1039/C7RA09859F; details: read-out: IC50, inhibition of NO production; cited from earlier work
[9] = RAW264.7, LPS-stimulated RAW 264.7 macrophages, LPS 100 ng/mL, 24 h

C[C@@H]1CC[C@H]2C(C)(C)[C@H](O)[C@H](O)C[C@]2(C)[C@@]12Cc1c(O)cc3c(c1O2)CN(CCc1ccc(O)cc1)C3=O [Compound 1, Chartarlactam U]
IC50 [1, 9]: 26.2 µM

CC1CCC2C(C)(C)C(O)C(O)CC2(C)C12Cc1c(O)cc3c(c1O2)C(=O)NC3=O (centres unmarked) [Compound 3, Chartarlactam W]
IC50 [1, 9]: 22.4 µM

CCC(C)C(C(=O)O)N1Cc2c(cc(O)c3c2O[C@]2(C3)[C@H](C)CC[C@H]3C(C)(C)[C@H](O)[C@H](O)C[C@@]32C)C1=O (some centres unmarked) [Compound 10]
IL-1β expression [2]: dose-dependent attenuation | inhibitory effect on NO production at 0.3 μM [3]: potent inhibitory effect on NO production | LPS-induced iNOS mRNA expression [4]: significant suppression | ROS production [5]: capable of inhibiting the production of ROS | TNF-α expression [6]: dose-dependent attenuation | cytotoxicity over the tested concentration range (RAW 264.7 cells; up to 30 μM (0.3–30 μM in the abstract, 3 to 30 μM)): no detectable cytotoxicity | IL-6 expression [7]: dose-dependent attenuation | DNA-binding activity of p65 (NF-κB p65): significant suppression of p65 binding | IC50 [1, 9]: 12.4 µM | NO production inhibition at 10 μM [1]: potent inhibitory effects

CC(C)CC(C(=O)O)N1Cc2c(cc(O)c3c2O[C@]2(C3)[C@H](C)CC[C@H]3C(C)(C)[C@H](O)[C@H](O)C[C@@]32C)C1=O (some centres unmarked) [Compound 11]
cytotoxicity at 30 μM (RAW 264.7 cells): manifested cytotoxicity | IC50 [1, 9]: 4.4 µM | NO production inhibition at 10 μM [1]: potent inhibitory effects | NO-inhibitory effect [1]: significant NO-inhibitory effects

CC(C)CC(C(=O)O)N1Cc2c(cc(O)c3c2O[C@]2(C3)[C@H](C)CC[C@H]3C(C)(C)[C@H](O)CC[C@@]32C)C1=O (some centres unmarked) [Compound 12]
cytotoxicity at 30 μM (RAW 264.7 cells): manifested cytotoxicity | IC50 ([1]; RAW264.7, 24 h): 6.5 µM | NO production inhibition at 10 μM [1]: potent inhibitory effects | NO-inhibitory effect [1]: significant NO-inhibitory effects

C[C@@H]1CC[C@H]2C(C)(C)[C@H](O)CC[C@]2(C)[C@@]12Cc1c(O)cc3c(c1O2)CN(C(CCC(=O)O)C(=O)O)C3=O (some centres unmarked) [Compound 13]
IC50 [1, 9]: 11.1 µM

C[C@@H]1CC[C@H]2C(C)(C)[C@H](O)[C@H](O)C[C@]2(C)[C@@]12Cc1c(O)cc3c(c1O2)CNC3=O [Compound 14]
cytotoxicity (qualitative) (RAW 264.7 cells): low cytotoxicity

C[C@@H]1CC[C@H]2C(C)(C)[C@H](O)CC[C@]2(C)[C@@]12Cc1c(O)cc3c(c1O2)CNC3=O [Compound 15]
cytotoxicity (qualitative) (RAW 264.7 cells): low cytotoxicity

COC(=O)CCCN1Cc2c(cc(O)c3c2O[C@]2(C3)[C@H](C)CC[C@H]3C(C)(C)[C@H](O)CC[C@@]32C)C1=O [stachybonoid F]
IC50 [8]: 52.5 µM

C[C@@H]1CC[C@H]2C(C)(C)[C@H](O)CC[C@]2(C)[C@@]12Cc1c(O)cc3c(c1O2)COC3=O [stachybotrylactone]
IC50 [8]: 17.9 µM

CC(=O)O[C@@H]1[C@H](O)C[C@@]2(C)[C@@H](CC[C@@H](C)[C@]23Cc2c(O)cc(CO)c(C=O)c2O3)C1(C)C [stachybotrysin C]
IC50 [8]: 27.2 µM
